{
  "source": "patent US20160324820A1",
  "about": "“PHARMACEUTICAL COMPOSITIONS COMPRISING 15-HEPE AND METHODS OF TREATING ASTHMA AND LUNG DISORDERS USING SAME” (Dignity Sciences Limited, priority 2014, published 2016)",
  "system": "Hartley guinea pigs",
  "test": "Histamine-induced bronchoconstriction following seven days of oral gavage in anesthetized, ventilated guinea pigs",
  "type": "in vivo, guinea pig",
  "conditions": "for Change from baseline Respiratory Resistance (ventilator pressure), Average RR / Change from baseline Respiratory Resistance (ventilator pressure), Average VP: n=3",
  "excerpt": "In an embodiment, the pharmacodynamics of a composition comprising 15-HEPE as disclosed herein may be examined using a model of a lung disease or disorder. In a more detailed embodiment, the effects of a composition comprising a vehicle, a positive control or 15-HEPE on ventilator pressure in histamine challenged guinea pigs serves as a model for the pharmacodynamics in asthma. In an exemplary method, guinea pigs are first dosed with compositions comprising a vehicle, a positive control or 15-HEPE for seven days. The treated guinea pigs can then be anesthetized and exposed to a nebulized bronchoconstictor to determine if 15-HEPE can reduce the increase in ventilatory pressure induced by a bronchoconstrictor. This serves as an effective model for asthma and other lung diseases. The guinea pig is a reliable animal model in respiratory research due to their respiratory sensitivity and their expression of similar respiratory reactions to those observed in humans. […] Adult male Hartley guinea pigs weighing approximately 450-500 g were acclimated least 5 days before the day of the beginning of the oral gavages. Animals were assigned to one of four groups (low dose, high dose, vehicle and positive control) and were double-housed per group during acclimation period. The test article was formulated using olive oil as the vehicle. A low and a high dose of 15-HEPE (50 mg/kg and 500 mg/kg) was formulated. A 1 mg/ml stock solution of bambuterol was prepared in an aqueous solution, and was then mixed with olive oil in the gavage syringe for the […]. The stock solution was stored at −20° C., but was used at room temperature and was considered stable for the duration of the experiment. A 5 μg/ml stock solution of histamine dihydrochloride (Sigma Aldrich) was prepared in a saline solution (0.9% NaCl). The stock solution was stored at 4° C. The expiration date was set at 14 days after preparation. The concentrations of positive control, (bambuterol 0.27 mg/kg/day) and the hypertensor (histamine 0.184, 0.919 and 1.84 μg/kg) were selected based on literature references. Each group received the designated compound by oral gavage using a 1 ml syringe. The dosing schedule was as follows: • Vehicle (olive oil) • Bambuterol 0.27 mg/kg/day • 15-HEPE 50 mg/kg/day • 15-HEPE 500 mg/kg/day The stock solutions were administered once per day for seven consecutive days. On the seventh dosage day the animals underwent surgery two hours after the oral feeding. All animal care and vivarium maintenance were recorded, with documents kept at the test facility. Guinea pigs were anesthetized with an intraperitoneal injection of urethane (1.5 g/kg). A tracheotomy was performed and the animals were mechanically ventilated throughout the experiment. The ventilatory pressure was recorded and analyzed for signs of bronchospasm. A pulse oxymeter was attached to each animal's hind paw to obtain heart beat and oxygen saturation on the anaesthetized guinea pigs to continuously monitor the general condition of the animals during the surgical procedure. Following baseline measurements, three doses of histamine (0.184, 0.919 and 1.84 μg/kg) were nebulized (constant volume tidal, 60 respirations per minute, 7.5 ml/sec), with an interval of 20 minutes between each dose, or until a steady state was reached. Respiratory resistance, heart rate, and oxygen saturation were monitored continuously for a period of about 1 hour post challenge. At the end of the experiment, the animals were euthanized by exsanguination. Clampfit 10.2.0.14 analysis software (Axon Instruments), installed on networked personal computers running Microsoft Windows was used. Clampfit 10.2.0.14 has been fully validated in the connected context in which it was used. The graphics software for illustrations is Microsoft Office Excel 2007 installed on networked personal computers running Microsoft Windows. […]",
  "key": {"[1]": {"conditions": "15-HEPE 500 mg/kg/day gavage 7 days, nebulized histamine 0.184 (μg/kg)"}, "[2]": {"conditions": "15-HEPE 500 mg/kg/day gavage 7 days, nebulized histamine 0.919 (μg/kg)"}, "[3]": {"conditions": "15-HEPE 500 mg/kg/day gavage 7 days, nebulized histamine 1.84 (μg/kg)"}, "[4]": {"conditions": "bambuterol 0.27 mg/kg/day gavage 7 days, nebulized histamine 0.184 (μg/kg)"}, "[5]": {"conditions": "bambuterol 0.27 mg/kg/day gavage 7 days, nebulized histamine 0.919 (μg/kg)"}, "[6]": {"conditions": "bambuterol 0.27 mg/kg/day gavage 7 days, nebulized histamine 1.84 (μg/kg)"}},
  "data": [
    {"smiles": "CCC=CCC(O)C=CC=CCC=CCC=CCCCC(=O)O", "note": "(stereo not shown) [15-HEPE, 15-Hydroxy-eicosa-5,8,11,13,17-pentaenoic acid]", "values": [
      {"measurement": "Change from baseline Respiratory Resistance (ventilator pressure), Guinea pig #1", "setting": "[1]", "value": 0.2098, "unit": "mmHg"},
      {"measurement": "Change from baseline Respiratory Resistance (ventilator pressure), Guinea pig #2", "setting": "[1]", "value": 1.657, "unit": "mmHg"},
      {"measurement": "Change from baseline Respiratory Resistance (ventilator pressure), Guinea pig #3", "setting": "[1]", "value": 0.6489, "unit": "mmHg"},
      {"measurement": "Change from baseline Respiratory Resistance (ventilator pressure), Average RR", "setting": "[1]", "value": 0.84, "unit": "mmHg"},
      {"measurement": "Change from baseline Respiratory Resistance (ventilator pressure), Guinea pig #1", "setting": "[2]", "value": 0.8494, "unit": "mmHg"},
      {"measurement": "Change from baseline Respiratory Resistance (ventilator pressure), Guinea pig #2", "setting": "[2]", "value": 1.37, "unit": "mmHg"},
      {"measurement": "Change from baseline Respiratory Resistance (ventilator pressure), Guinea pig #3", "setting": "[2]", "value": 2.34, "unit": "mmHg"},
      {"measurement": "Change from baseline Respiratory Resistance (ventilator pressure), Average RR", "setting": "[2]", "value": 1.52, "unit": "mmHg"},
      {"measurement": "Change from baseline Respiratory Resistance (ventilator pressure), Guinea pig #1", "setting": "[3]", "value": 2.169, "unit": "mmHg"},
      {"measurement": "Change from baseline Respiratory Resistance (ventilator pressure), Guinea pig #2", "setting": "[3]", "value": 1.791, "unit": "mmHg"},
      {"measurement": "Change from baseline Respiratory Resistance (ventilator pressure), Guinea pig #3", "setting": "[3]", "value": 3.913, "unit": "mmHg"},
      {"measurement": "Change from baseline Respiratory Resistance (ventilator pressure), Average RR", "setting": "[3]", "value": 2.62, "unit": "mmHg"},
      {"measurement": "lung ventilatory pressure", "setting": "test animals challenged with a bronchoconstrictor, result in words", "value": "improve lung ventilatory pressure"}
    ]},
    {"smiles": "CN(C)C(=O)Oc1cc(OC(=O)N(C)C)cc(C(O)CNC(C)(C)C)c1", "note": "(stereo not shown) [Bambuterol, bambuterol, reference compound]", "values": [
      {"measurement": "Change from baseline Respiratory Resistance (ventilator pressure), Guinea pig #1", "setting": "[4]", "value": 0.2759, "unit": "mmHg"},
      {"measurement": "Change from baseline Respiratory Resistance (ventilator pressure), Guinea pig #2", "setting": "[4]", "value": "−0.05857", "unit": "mmHg"},
      {"measurement": "Change from baseline Respiratory Resistance (ventilator pressure), Guinea pig #3", "setting": "[4]", "value": 1.238, "unit": "mmHg"},
      {"measurement": "Change from baseline Respiratory Resistance (ventilator pressure), Average VP", "setting": "[4]", "value": 0.48, "unit": "mmHg"},
      {"measurement": "Change from baseline Respiratory Resistance (ventilator pressure), Guinea pig #1", "setting": "[5]", "value": 1.099, "unit": "mmHg"},
      {"measurement": "Change from baseline Respiratory Resistance (ventilator pressure), Guinea pig #2", "setting": "[5]", "value": 1.219, "unit": "mmHg"},
      {"measurement": "Change from baseline Respiratory Resistance (ventilator pressure), Guinea pig #3", "setting": "[5]", "value": 2.266, "unit": "mmHg"},
      {"measurement": "Change from baseline Respiratory Resistance (ventilator pressure), Average VP", "setting": "[5]", "value": 1.53, "unit": "mmHg"},
      {"measurement": "Change from baseline Respiratory Resistance (ventilator pressure), Guinea pig #1", "setting": "[6]", "value": 2.215, "unit": "mmHg"},
      {"measurement": "Change from baseline Respiratory Resistance (ventilator pressure), Guinea pig #2", "setting": "[6]", "value": 1.945, "unit": "mmHg"},
      {"measurement": "Change from baseline Respiratory Resistance (ventilator pressure), Guinea pig #3", "setting": "[6]", "value": 2.651, "unit": "mmHg"},
      {"measurement": "Change from baseline Respiratory Resistance (ventilator pressure), Average VP", "setting": "[6]", "value": 2.27, "unit": "mmHg"}
    ]}
  ]
}
